Measurements from US4006251A, “Bactericidal and fungicidal composition containing thiocarbanyl sulfenamides” (The B. F. Goodrich Company, priority 1973, dated 1977).
≈ marks a conversion by molar mass, not a printed value. Like-named read-outs stand apart in the source and are kept apart here.

Experiments:
[1] = tested on: various infectious organisms; test: Activity against organisms, overall (Agar Screening Test and/or Penicillin Button Assay Test); type: cell-based; details: organisms (a) to (d)
From the text: A. Agar Screening Test for Activity.
B. Penicillin Button Assay Test.

[2] = Storage stability test, melting point, appearance and odor before and after aging; type: physicochemical; details: for Melting point, after aging: air oven, closed bottles
Method: (§1) D. Storage Stability Tests.
In addition to the titration test, other tests were run. The melting point of the compound was measured both before and after aging. Little or no change in melting point indicates good storage stability. Further, observations were made upon the appearance and odor of the compounds before and after aging.
(§2) This is important if the compounds are going to be used in disinfectant solutions, and stored and marked without a significant loss in activity against organisms. […] The compounds were aged in an air oven, while in closed bottles. The test methods used were previously described.

rabbits = test: Acute dermal toxicity test; type: in vivo; details: classification according to federal regulations
Method: (§3) The thiocarbamylsulfenamide compounds were also evaluated as to their oral, dermal, and inhalation toxicity. The techniques employed are specified in Section 362.116 of the Regulations for the Enforcement of the Federal Insecticide, Fungicide, and Rodenticide Act, Interpretation 18 (Revised, Federal Register, April 4, 1969), or in the Federal Hazardous Substances Act. (Revised, Federal Register, September 17, 1964). Acute oral LD50, acute dermal LD50, and acute inhalation LC50 were determined; LD50 being the lethal dose for 50% of the test animals and LC50 being the lethal concentration for 50% of the test animals. Acute oral and acute inhalation tests were run using rats, while acute dermal testing was run using rabbits.
(§4) Two of the compounds evaluated for their activity against organisms (compounds A and G respectively in Example V) were tested for their toxicity following the procedure previously given in the specification.

[3] = Acute dermal toxicity test; type: in vivo, rabbits; details: rabbit, in vivo, topical or ocular; rabbits, dermal
Method: as §3, §4

rats = test: Acute inhalation toxicity test; type: in vivo; details: classification according to federal regulations
Method: as §3, §4

[4] = Acute inhalation toxicity test; type: in vivo, rats; details: rat, in vivo, inhaled or intranasal; rats, inhalation
Method: as §3, §4

Acute oral toxicity test = details: rat, in vivo, rats
Method: as §3, §4

[5] = Storage stability test, purity by titration before and after aging; type: physicochemical; details: for Percent Purity, after aging: air oven, closed bottles
Method: as §1
Thiocarbamylsulfenamide compounds were tested for their stability upon storage at room temperature and after mild thermal aging. The principle test employed consisted of measuring the purity of a sample before and after aging. This was done by titrating a sample solution of the compound using potassium iodide, KI, and sodium thiosulfate, Na2 S2 O3. A 0.5 to 1.0 gram sample of the compound is weighed out and dissolved in 10 milliliters of chloroform. […] The calculations are: [formula] The value obtained is the percent by weight of the sample that is the desired thiocarbamylsulfenamide. The titration is run on the sample before and after aging. The change in purity of the compound indicates its decomposition upon storage.
as §2

[6] = tested on: various infectious organisms; details: U.S. Pat. No. 2,692,862; cited from earlier work
[7] = before aging, sample for 50 °C, 10 days
[8] = before aging, sample for 80 °C, 16 hrs.

SMILES: CCCCN(CCCC)C(=S)SN(C1CCCCC1)C1CCCCC1 [C, N,N-dibutylthiocarbamyl-N',N'-dicyclohexylsulfenamide]
- activity against organisms (in words) [1]: no activity

SMILES: CN(C)C(=S)SN(C1CCCCC1)C1CCCCC1 [Compound A, N,N-dimethylthiocarbamyl-N',N'-dicyclohexylsulfenamide]
- Amine odor, after aging ([2]; 50 °C, 10 days): slight
- Melting point, after aging ([2]; 50 °C, 10 days): 85-87 °C
- Amine odor, after aging ([2]; 80 °C, 16 hrs.): slight
- Color, after aging ([2]; 80 °C, 16 hrs.): white
- Melting point, after aging ([2]; 80 °C, 16 hrs.): 83-85 °C
- Amine odor, before aging ([2]; sample for 50 °C, 10 days): slight
- Color, before aging ([2]; sample for 50 °C, 10 days): white
- Melting point, before aging ([2]; sample for 50 °C, 10 days): 85-87 °C
- Amine odor, before aging ([2]; sample for 80 °C, 16 hrs.): slight
- Color, before aging ([2]; sample for 80 °C, 16 hrs.): white
- Melting point, before aging ([2]; sample for 80 °C, 16 hrs.): 84-85 °C
- toxicity by dermal absorption (in words) (rabbits): non-toxic
- LD50 [3]: > 10000 mg/kg
- toxicity by inhalation (in words) (rats): non-toxic
- LC50 [4]: 78 µg/mL (≈ 260 µM)
- activity against organisms (in words) [1]: good activity against organisms
- LD50 (Acute oral toxicity test): 1100 mg/kg
- Percent Purity, after aging ([5]; after aging, 50 °C, 10 days): 99%
- Percent Purity, after aging ([5]; after aging, 80 °C, 16 hrs.): 97%
- Percent Purity, before aging [5, 7]: 99%
- Percent Purity, before aging [5, 8]: 100%

SMILES: CCN(CC)C(=S)SNc1ccccc1 [I, N,N-diethylthiocarbamyl-N'-phenylsulfenamide]
- activity against organisms (in words) [1]: very little activity

SMILES: CCCCCCCCCCCCCCCCCCCCN(CCCCCCCCCCCCCCCCCCCC)C(=S)SN(C1CCCCC1)C1CCCCC1 [D, N,N-dieicosylthiocarbamyl-N',N'-dicyclohexylsulfenamide]
- activity against organisms (in words) [1]: no activity

SMILES: S=C(SN1CCOCC1)N1CCOCC1 [Compound G, N-oxydiethylenethiocarbamyl-N'-oxydiethylenesulfenamide]
- Amine odor, after aging ([2]; 80 °C, 16 hrs.): slight
- Melting point, after aging ([2]; 80 °C, 16 hrs.): 135-139 °C
- Amine odor, before aging ([2]; sample for 80 °C, 16 hrs.): slight
- Color, before aging ([2]; sample for 80 °C, 16 hrs.): white
- Melting point, before aging ([2]; sample for 80 °C, 16 hrs.): 136-139 °C
- toxicity by dermal absorption (in words) (rabbits): non-toxic
- LD50 [3]: > 10000 mg/kg
- toxicity by inhalation (in words) (rats): non-toxic
- LC50 [4]: 164 µg/mL (≈ 660 µM)
- activity against organisms (in words) [1]: good activity against organisms
- LD50 (Acute oral toxicity test): 5100 mg/kg
- Percent Purity, before aging [5]: 98
- Percent Purity, after aging ([5]; 16 h): 98

SMILES: S=C(SN(C1CCCCC1)C1CCCCC1)N1CCOCC1 [E, N-oxydiethylenethiocarbamyl-N',N'-dicyclohexylsulfenamide]
- activity against organisms (in words) [1]: almost no activity

SMILES: CC(C)N(SC(=S)N(C)C)C(C)C [K, N,N-dimethylthiocarbamyl-N',N'-diisopropylsulfenamide, reference compound]
- Amine odor, after aging ([2]; 80 °C, 16 hrs.): strong
- Melting point, after aging ([2]; 80 °C, 16 hrs.): 53-54 °C
- Amine odor, before aging ([2]; sample for 80 °C, 16 hrs.): mild
- Color, before aging ([2]; sample for 80 °C, 16 hrs.): white
- Melting point, before aging ([2]; sample for 80 °C, 16 hrs.): 56-57 °C
- known activity against organisms (in words) [6]: known to have activity against organisms
- Percent Purity, after aging ([5]; after aging, 80 °C, 16 hrs.): 89%
- Percent Purity, before aging [5, 8]: 93%

SMILES: CN(C)SC(=S)N(C)C [J, N,N-dimethylthiocarbamyl-N',N'-dimethylsulfenamide, reference compound]
- Amine odor, after aging ([2]; 50 °C, 10 days): strong
- Color, after aging ([2]; 50 °C, 10 days): yellow
- Melting point, after aging ([2]; 50 °C, 10 days): 34-39 °C
- Amine odor, before aging ([2]; sample for 50 °C, 10 days): slight
- Melting point, before aging ([2]; sample for 50 °C, 10 days): 49-51 °C
- known activity against organisms (in words) [6]: known to have activity against organisms
- Percent Purity, after aging ([5]; after aging, 50 °C, 10 days): 77%
- Percent Purity, before aging [5, 7]: 96%

SMILES: CCN(CC)C(=S)SN(C1CCCCC1)C1CCCCC1 [Compound B, N,N-diethylthiocarbamyl-N',N'-dicyclohexylsulfenamide]
- activity against organisms (in words) [1]: good activity

SMILES: CN(C)C(=S)SNc1ccccc1 [Compound H, N,N-dimethylthiocarbamyl-N'-phenylsulfenamide]
- activity against organisms (in words) [1]: good activity
